# Marks after values point to notes of the source that are not given here.
# What was measured:
# PGE2 = assay: Estimation of rat plasma PGE2; settings: po 10 µmol/kg b.wt., 8 h after carrageenan; for % inhibition of PGE2-production: rat serum; for PGE2 serum conc.: rat, Mean ± SEM, n = 5
# [1] = test system: carrageenan-induced paw edoema; assay: Carrageenan-induced paw edoema in mice; settings: for ED50: Mus musculus, read-out: ED50 (95% confidence level); for ED50 / percentage anti-inflammatory activity (AI%) 8h: 8 h; for Thickness of edoema 0h / percentage anti-inflammatory activity (AI%) 2h / Thickness of edoema 2h / percentage anti-inflammatory activity (AI%) 4h / Thickness of edoema 4h / percentage anti-inflammatory activity (AI%) 6h / Thickness of edoema 6h / percentage anti-inflammatory activity (AI%) 8h / Thickness of edoema 8h: mice, po 10 µmol/kg b.wt.; for Thickness of edoema 0h: 0 h (before carrageenan); for Thickness of edoema 0h / Thickness of edoema 2h / Thickness of edoema 4h / Thickness of edoema 6h / Thickness of edoema 8h: Mean ± SEM, n = 5; for Thickness of edoema 2h: 2 h after carrageenan; for Thickness of edoema 4h: 4 h after carrageenan; for Thickness of edoema 6h: 6 h after carrageenan; for Thickness of edoema 8h: 8 h after carrageenan
# ovine COX-1 = target: T1, ovine COX-1 (Ovis aries, UniProt P05979); assay: In vitro COX-1 enzymatic assay (Cayman kit 560131); type: biochemical; settings: Mean ± SEM of triplicate determinations
# T1 construct: purchased Cayman Chemicals Inc. 560131
# T1 sequence (P05979 25-600): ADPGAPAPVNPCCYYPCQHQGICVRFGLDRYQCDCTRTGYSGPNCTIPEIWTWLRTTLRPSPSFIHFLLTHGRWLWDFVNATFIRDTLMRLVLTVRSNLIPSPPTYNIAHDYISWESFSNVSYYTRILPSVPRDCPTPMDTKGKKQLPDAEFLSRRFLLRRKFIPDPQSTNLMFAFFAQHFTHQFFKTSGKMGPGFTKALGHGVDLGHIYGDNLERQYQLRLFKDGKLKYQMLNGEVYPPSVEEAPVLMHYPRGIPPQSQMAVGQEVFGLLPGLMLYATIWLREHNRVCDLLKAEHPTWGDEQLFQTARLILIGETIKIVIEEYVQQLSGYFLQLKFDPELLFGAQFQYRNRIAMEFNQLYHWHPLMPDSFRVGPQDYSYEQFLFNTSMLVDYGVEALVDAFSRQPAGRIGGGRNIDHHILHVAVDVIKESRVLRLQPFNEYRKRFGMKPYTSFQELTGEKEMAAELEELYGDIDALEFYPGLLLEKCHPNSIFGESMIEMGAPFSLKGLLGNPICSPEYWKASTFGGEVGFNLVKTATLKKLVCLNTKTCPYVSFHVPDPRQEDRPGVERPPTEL
# gastric layers = assay: Gastric ulcerogenic activity; settings: fasted male Wistar rats, oral 30 µmol/kg twice at 4 h interval
# [2] = test system: Salmonella typhi (RCMB 0100104); assay: Inhibition zone, agar cup diffusion; type: cell-based; settings: Salmonella enterica, 24 h, read-out: inhibition zones (IZ) S. typhi
# [3] = test system: Shigella dysenteriae (RCMB 0100542); assay: Inhibition zone, agar cup diffusion; type: cell-based; settings: RCMB0100542, 24 h, read-out: inhibition zones (IZ) S. dysenteriae
# [4] = test system: Gram-positive and Gram-negative bacteria; assay: In vitro antibacterial screening, whole panel; type: cell-based; settings: whole bacterial panel, result in words
# [5] = test system: Staphylococcus aureus (RCMB 0100183); assay: Inhibition zone, agar cup diffusion; settings: RCMB0100183, 24 h, read-out: inhibition zones (IZ) S. aureus
# [6] = test system: Staphylococcus epidermidis (RCMB 0100183); assay: Inhibition zone, agar cup diffusion; settings: RCMB0100183, 24 h, read-out: inhibition zones (IZ) S. epidermidis
# [7] = test system: Streptococcus mutans (RCMB 0100172); assay: Inhibition zone, agar cup diffusion; settings: RCMB0100172, 24 h, read-out: inhibition zones (IZ) S. mutans
# [8] = test system: Bacillus subtilis (RCMB 0100162); assay: Inhibition zone, agar cup diffusion; settings: RCMB0100162, 24 h, read-out: inhibition zones (IZ) B. subtillis
# [9] = test system: Pseudomonas aeruginosa (RCMB 0100243); assay: Inhibition zone, agar cup diffusion; settings: RCMB0100243, 24 h, read-out: inhibition zones (IZ) P.aeruginosa
# [10] = test system: Escherichia coli (RCMB 010052); assay: Inhibition zone, agar cup diffusion; settings: RCMB010052, 24 h, read-out: inhibition zones (IZ) E.coli
# [11] = test system: Proteus vulgaris (RCMB 010085); assay: Inhibition zone, agar cup diffusion; settings: RCMB010085, 24 h, read-out: inhibition zones (IZ) P. vulgaris
# human recombinant COX-2 = target: T2, human recombinant COX-2 (Homo sapiens, UniProt P35354); assay: In vitro COX-2 enzymatic assay (Cayman kit 560131); settings: for SI COX-1/COX-2: COX-2 selectivity index: COX-1 IC50/COX-2 IC50
# T2 sequence (P35354 18-604): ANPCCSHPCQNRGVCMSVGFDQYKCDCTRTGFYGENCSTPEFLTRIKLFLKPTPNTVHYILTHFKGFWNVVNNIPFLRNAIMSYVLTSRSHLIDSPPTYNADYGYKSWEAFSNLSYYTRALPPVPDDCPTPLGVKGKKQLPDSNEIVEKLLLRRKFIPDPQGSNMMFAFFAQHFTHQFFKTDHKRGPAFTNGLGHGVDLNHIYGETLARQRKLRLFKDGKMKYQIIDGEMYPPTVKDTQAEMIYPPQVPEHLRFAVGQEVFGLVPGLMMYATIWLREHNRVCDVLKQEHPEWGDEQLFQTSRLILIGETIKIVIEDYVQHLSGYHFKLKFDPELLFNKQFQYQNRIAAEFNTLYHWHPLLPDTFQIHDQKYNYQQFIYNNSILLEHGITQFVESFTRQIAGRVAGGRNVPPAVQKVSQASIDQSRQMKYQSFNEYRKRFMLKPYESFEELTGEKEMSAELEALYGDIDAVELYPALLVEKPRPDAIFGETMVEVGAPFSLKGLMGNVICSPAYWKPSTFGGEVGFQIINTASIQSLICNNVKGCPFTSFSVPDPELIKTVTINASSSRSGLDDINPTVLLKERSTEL
Structure (SMILES),% inhibition of PGE2-production (PGE2) [%],PGE2 serum conc. (PGE2) [pg/mL],ED50 [1] [µmol/kg],Thickness of edoema 0h [1] [mm],percentage anti-inflammatory activity (AI%) 2h [1],Thickness of edoema 2h [1],percentage anti-inflammatory activity (AI%) 4h [1],Thickness of edoema 4h [1],percentage anti-inflammatory activity (AI%) 6h [1],Thickness of edoema 6h [1],Thickness of edoema 8h [1],IC50 (ovine COX-1) [µM],zone of inhibition at 1000 µg/mL [2] [mm],zone of inhibition at 1000 µg/mL [3] [mm],in vitro antibacterial activity [4],zone of inhibition at 1000 µg/mL [5] [mm],zone of inhibition at 1000 µg/mL [6] [mm],zone of inhibition at 1000 µg/mL [7] [mm],zone of inhibition at 1000 µg/mL [8] [mm],zone of inhibition at 1000 µg/mL [9] [mm],other results
"Cc1ccc(-c2cc(C(F)(F)F)nn2-c2ccc(S(N)(=O)=O)cc2)cc1 [Celecoxib, reference compound]",71.18,380.636 ± 5.53,13.1,0.62 ± 0.01,(6.32%)^d,0.89 ± 0.01^c mm,(45.14%),0.79 ± 0.01^c mm,(64.39%),0.73 ± 0.03^c mm,0.67 ± 0.02^c mm,–,–,–,–,–,–,–,–,–,percentage anti-inflammatory activity (AI%) 8h [1]: (70.87%); percentage anti-inflammatory activity (AI%) 8h ([1]; listed as celecoxib): 70.87%
"CCCCNC(=O)c1cc(/N=N/c2ccc(S(=O)(=O)Nc3nccs3)cc2)ccc1O [Compound 5b, N-Butyl-2-hydroxy-5-((4-(N-(thiazol-2-yl)sulfamoyl)phenyl)diazenyl) benzamide]",65.70,452.954 ± 6.48,18.7,0.68 ± 0.01,(0%),0.95 ± 0.04 mm,(20.83%),1.19 ± 0.01 mm,(45.85%),1.11 ± 0.01 mm,1.01 ± 0.02 mm,12.2 ± 0.06,14,22,weak in vitro antibacterial activity,29,34,27,20,16,"Gastric ulcerogenic effect, histopathological examination of gastric layers (gastric layers): gastrointestinal safety profile; zone of inhibition at 1000 µg/mL [10]: 14 mm; zone of inhibition at 1000 µg/mL [11]: 19 mm; IC50 (human recombinant COX-2): 0.07 ± 0.0005 µM; SI COX-1/COX-2 (human recombinant COX-2): 187.7; ED50 (S. aureus Smith; Staphylococcus aureus, in Mus musculus, read-out: ED50 against S. aureus infection): 413 µmol/kg; ED50, protective effect against bacteremic infection, Staphylococcus aureus (S. aureus Smith; mice, challenge dose 9.5x10^6 CFU/mouse ip, intragastric once a day for 7 days, survival): 413.1 µmol/kg/day; ED50 (E. coli C11; Escherichia coli, C11, in Mus musculus, read-out: ED50 against E.coli infection): 416 µmol/kg; ED50, protective effect against bacteremic infection, Escherichia coli (E. coli C11; mice, challenge dose 7.1x10^3 CFU/mouse ip, intragastric once a day for 7 days, survival): 415.7 µmol/kg/day"
"O=C(c1cc(/N=N/c2ccc(S(=O)(=O)Nc3nccs3)cc2)ccc1O)N1CCCCC1 [Compound 5i, 4-((4-Hydroxy-3-(piperidine-1-carbonyl)phenyl)diazenyl)-N-(thiazol-2-yl) benzenesulfonamide]",–,–,–,–,–,–,–,–,–,–,–,11.2 ± 0.11,15,22,weak in vitro antibacterial activity,25,30,31,19,18,zone of inhibition at 1000 µg/mL [10]: 16 mm; zone of inhibition at 1000 µg/mL [11]: 18 mm; IC50 (human recombinant COX-2): 0.08 ± 0.0008 µM; SI COX-1/COX-2 (human recombinant COX-2): 136.6
